# Where a SMILES comes first, the peptide text is derived from it. Bridges are numbered along the chain shown (N, C = ends).
# Tests used:
# [1] = system: pseudotyped virus expressing SARS-CoV-2 S protein from the B.1.1.7 variant; format: cell-based
# [2] = system: pseudotyped virus expressing SARS-CoV-2 S protein from the P.1 variant; format: cell-based
smiles,measurement,setting,value
"CC[C@H](C)[C@@H]1NC(=O)[C@H](CCC(=O)O)NC(=O)[C@@H]2CSSC[C@@H]3NC(=O)[C@H](Cc4ccc(O)cc4)NC(=O)[C@@H](NC(=O)[C@@H](NC(=O)[C@H](C)N)[C@@H](C)O)CSSC[C@@H](C(=O)N[C@@H](CCCNC(=N)N)C(=O)O)NC(=O)[C@H](CSSC[C@H](NC(=O)[C@H](CCCNC(=N)N)NC(=O)CNC(=O)[C@H]([C@@H](C)O)NC(=O)[C@H](CCCNC(=N)N)NC3=O)C(=O)N[C@@H](C)C(=O)N[C@@H]([C@@H](C)O)C(=O)N[C@@H](CCCNC(=N)N)C(=O)N[C@@H](CCC(=O)O)C(=O)N[C@@H](CO)C(=O)N[C@@H](CC(C)C)C(=O)N[C@@H](CO)C(=O)NCC(=O)N[C@@H](C(C)C)C(=O)N2)NC(=O)[C@H](CC(C)C)NC(=O)[C@H](CCCNC(=N)N)NC(=O)[C@H](Cc2ccc(O)cc2)NC(=O)[C@H](CC(C)C)NC(=O)[C@H](CCCNC(=N)N)NC(=O)CNC(=O)[C@H](CO)NC1=O [HD5] (H-ATCYCRTGRCATRESLSGVCEISGRLYRLCCR-OH; disulfide 3-31, 5-20, 10-30 (inferred); N-terminus and C-terminus assumed)",effect on B.1.1.7 variant (in words),[1],moderate antiviral activity
same,inhibition of B.1.1.7 infection,[1]; 50 μg/mL,32%
same,effect on P.1 variant (in words),[2],suppressed the P.1 variant in a dose-dependent manner
same,suppression of P1 infection,[2]; 50 μg/mL,72%

# — publication PMC8310277 (Viruses, 2021)
